Results taken from PubChem BioAssay (NCI).
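Values below derive from 48-hour exposures of cells grown in 96-well plates, with endpoints linearly interpolated between the two concentrations bracketing the appropriate inhibition level. The concentration for 50% growth inhibition is given as GI50. TGI denotes the concentration required for complete inhibition of growth.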

Columns and labels:
Assay in all cases: NCI-60 cell line screen, 48 h
[1] = system: U251 CNS
[2] = system: SNB-75 CNS
[3] = system: UO-31 renal
[4] = system: HOP-62 NSCLC
[5] = system: COLO 205 colon
[6] = system: HOP-92 NSCLC
[7] = system: BT-549 breast
[8] = system: MCF7 breast
[9] = system: OVCAR-4 ovarian
[10] = system: MALME-3M melanoma
[11] = system: SK-MEL-28 melanoma
[12] = system: OVCAR-5 ovarian
[13] = system: M14 melanoma
[14] = system: HS 578T breast
[15] = system: SN12C renal
[16] = system: NCI-H23 lung
[17] = system: CCRF-CEM leukemia
[18] = system: OVCAR-8 ovarian
[19] = system: A498 renal
[20] = system: MOLT-4 leukemia
[21] = system: NCI/ADR-RES ovarian
[22] = system: SF-268 CNS
[23] = system: A549 NSCLC
[24] = system: SW-620 colon
[25] = system: CAKI-1 renal
[26] = system: T-47D breast
[27] = system: TK-10 renal
[28] = system: UACC-62 melanoma
[29] = system: MDA-MB-435
[30] = system: RXF 393 renal
[31] = system: HCC-2998 colon
[32] = system: HT29 colon
[33] = system: IGROV1 ovarian
[34] = system: ACHN renal
[35] = system: SK-MEL-2 melanoma
[36] = system: NCI-H460 lung
[37] = system: UACC-257 melanoma
[38] = system: PC-3 prostate
[39] = system: SR leukemia
[40] = system: HCT-116 colon
[41] = system: SNB-19 CNS
[42] = system: KM12 colon
[43] = system: HCT-15 colon
[44] = system: MDA-MB-231 breast
[45] = system: LOX IMVI melanoma
[46] = system: OVCAR-3 ovarian
[47] = system: DU-145 prostate
[48] = system: 786-0 renal
[49] = system: HL-60(TB) leukemia
[50] = system: NCI-H522 lung
[51] = system: K-562 leukemia
[52] = system: SK-OV-3 ovarian
[53] = system: SF-539 CNS
[54] = system: RPMI-8226 leukemia
[55] = system: NCI-H226 lung
[56] = system: SK-MEL-5 melanoma

Structure (SMILES): COC(=O)[C@@H](Cc1c[nH]c2ccccc12)NC(=O)/C=C/c1ccccc1
- GI50 [1]: 3.16 µM
- TGI [1]: 41.6 µM
- GI50 [2]: 2.42 µM
- TGI [2]: > 100 µM
- GI50 [3]: 3.68 µM
- TGI [3]: > 100 µM
- GI50 [4]: 3.62 µM
- TGI [4]: > 100 µM
- GI50 [5]: 12.4 µM
- TGI [5]: 50.3 µM
- GI50 [6]: 0.235 µM
- TGI [6]: 4.29 µM
- GI50 [7]: 4.1 µM
- TGI [7]: 71.8 µM
- GI50 [8]: 3.2 µM
- TGI [8]: > 100 µM
- GI50 [9]: 5.71 µM
- TGI [9]: > 100 µM
- GI50 [10]: > 100 µM
- TGI [10]: > 100 µM
- GI50 [11]: 4.43 µM
- TGI [11]: > 100 µM
- GI50 [12]: 5.43 µM
- TGI [12]: > 100 µM
- GI50 [13]: 3.05 µM
- TGI [13]: > 100 µM
- GI50 [14]: 1.81 µM
- TGI [14]: 7.88 µM
- GI50 [15]: 4.49 µM
- TGI [15]: > 100 µM
- GI50 [16]: 4.32 µM
- TGI [16]: > 100 µM
- GI50 [17]: 3.45 µM
- TGI [17]: > 100 µM
- GI50 [18]: 3.6 µM
- TGI [18]: > 100 µM
- GI50 [19]: 0.511 µM
- TGI [19]: 6.75 µM
- GI50 [20]: 3.57 µM
- TGI [20]: > 100 µM
- GI50 [21]: 2.53 µM
- TGI [21]: > 100 µM
- GI50 [22]: 4.52 µM
- TGI [22]: > 100 µM
- GI50 [23]: 3.91 µM
- TGI [23]: > 100 µM
- GI50 [24]: 4.07 µM
- TGI [24]: > 100 µM
- GI50 [25]: 3.42 µM
- TGI [25]: > 100 µM
- GI50 [26]: 8.41 µM
- TGI [26]: > 100 µM
- GI50 [27]: 17.9 µM
- TGI [27]: > 100 µM
- GI50 [28]: 3.97 µM
- TGI [28]: > 100 µM
- GI50 [29]: 0.782 µM
- TGI [29]: 3.91 µM
- GI50 [30]: 1.5 µM
- TGI [30]: 4.58 µM
- GI50 [31]: 2.65 µM
- TGI [31]: 8.56 µM
- GI50 [32]: 3.9 µM
- TGI [32]: 14.1 µM
- GI50 [33]: 7.07 µM
- TGI [33]: > 100 µM
- GI50 [34]: 4.08 µM
- TGI [34]: > 100 µM
- GI50 [35]: 6.63 µM
- TGI [35]: > 100 µM
- GI50 [36]: 3.26 µM
- TGI [36]: 15.1 µM
- GI50 [37]: 9.03 µM
- TGI [37]: > 100 µM
- GI50 [38]: 3.22 µM
- TGI [38]: 68.2 µM
- GI50 [39]: 2.98 µM
- TGI [39]: 11.6 µM
- GI50 [40]: 3.36 µM
- TGI [40]: > 100 µM
- GI50 [41]: 7.31 µM
- TGI [41]: > 100 µM
- GI50 [42]: 4.13 µM
- TGI [42]: 33.5 µM
- GI50 [43]: 3.31 µM
- TGI [43]: > 100 µM
- GI50 [44]: 2.93 µM
- TGI [44]: 8.63 µM
- GI50 [45]: 3.73 µM
- TGI [45]: > 100 µM
- GI50 [46]: 2.83 µM
- TGI [46]: 7.78 µM
- GI50 [47]: 4.58 µM
- TGI [47]: > 100 µM
- GI50 [48]: 3.96 µM
- TGI [48]: > 100 µM
- GI50 [49]: 2.33 µM
- TGI [49]: 5.71 µM
- GI50 [50]: 1.81 µM
- TGI [50]: 30.5 µM
- GI50 [51]: 2.74 µM
- TGI [51]: > 100 µM
- GI50 [52]: 3.15 µM
- TGI [52]: > 100 µM
- GI50 [53]: 1.95 µM
- TGI [53]: 5.29 µM
- GI50 [54]: 3.48 µM
- TGI [54]: 33.7 µM
- GI50 [55]: 6.06 µM
- TGI [55]: > 100 µM
- GI50 [56]: 3.14 µM
- TGI [56]: 13.8 µM
